Data: US20030022926A1, “Method for treating neuropathic pain and pharmaceutical preparation therefor” (priority 2001, published 2003)
Where two headings read alike, the source gives them in different places.

How the values were obtained:
[1] = tested on: phosphorylated cAMP response element binding protein (pCREB)
Experimental: The L4-5 spinal cord segments and the ipsilateral and contralateral sciatic nerve segments at both proximal and mid-thigh levels were removed and postfixed in the same fixative for 3-6 hours. Then all tissues were transferred to 30% sucrose in 0.1 M PB at 40° C. for cryoprotection. The spinal cord segments were cut on a cryostat at a 40 μm thickness. The free-floating sections were collected in PBS. After being pre-treated with 0.3% H 202 and 10% normal goat serum (NGS, Vector Laboratories, Burlingame, Calif.), sections were incubated for 36 hours at 40° C. in a rabbit polyclonal anti-phospho-CREB antibody (1:1,000, New England Biolabs, Beverly, Mass., U.S.A.) diluted in phosphate buffered saline containing 0.3% Triton-×100 (PBS+T) and 3% NGS. Subsequently, the sections were incubated in biotinylated goat anti-rabbit IgG (Vector) and further processed using Elite Vectastain ABC kit (Vector) according to the instructions of the manufacturer. Between each incubation, sections were washed in PBS+T (15 min twice). Finally, the immunoprecipitates were developed by 3,-3′ diaminobenzedine (DAB) and the chromogen was enhanced by the glucose oxidase-nickel-3,-3′ DAB method.
Images of both ipsilateral and contralateral dorsal horns of nerve injured rats or from the dorsal horn of normal rats were captured at ×250 magnification using a CCD camera. In a given area (235 μm×235 μm), which covered the entire LI to LII in depth and was located in the middle one third of the mediolateral extent of the dorsal horn, the number of pixels occupied by pCREB-IR cells on each side was measured automatically using image analysis software (SigmaScan, Jandel Scientific Inc., San Rafael, Calif., U.S.A.). Values are expressed as mean+SEM. Groups were compared using two-way ANOVA followed by Dunnett's or Fishers LSD test. To compare the mean number of the pixels occupied by pCREB-IR cells between two-side dorsal horn, a paired t-test or one-way ANOVA with Student-Newman-Keuls multiple comparison method was used. P<0.05 was considered significant.

[2] = tested on: mechanical allodynia in rats with partial ligation of sciatic nerve
Source text: A validated animal model of neuropathic pain was used that results from a partial ligation of one sciatic nerve in rat (Seltzer 1990). Nerve ligation and subsequent edema represents an experimental model for mechanisms operative in both nociceptive nerve pain and pain due to partial deafferentation (Asbury A, Fields H. Pain due to peripheral nerve damage: an hypothesis. Neurology 1984; 34: 1587-1590). This model thereby closely mimics the clinical situation found in several cancerous patients.
(§1) After Institutional Animal Care Committee approval, adult male Wistar rats (Hanovre, weight 150 -180 g) underwent partial sciatic nerve ligation of the right sciatic nerve as described by Seltzer et al (Seltzer 1990). Briefly, under halothane anesthesia, the right sciatic nerve was exposed at high-thigh level and liberated from surrounding tissues. One third to one half of the nerve was then tightly ligated with silicon-treated silk suture (Prolene 7-0) before those muscle and skin layers were closed. The animals were allowed to recover for four to six weeks, lag of time sufficient to develop neuropathic pain features.
Mechanical allodynia was assessed by application of calibrated Von Frey filaments (Stoelting, Wood Dale, Ill.), ranging from 1.2 g to 28.8 g.
The animals were placed on a plastic mesh floor into individual boxes. After accommodation to the environment, the Von Frey filaments were applied vertically to the plantar surface of the ligated hind paw and gently bent 3-4 times over approximately 2 sec. if no response was elicited, a larger filament was applied in the same manner. The filaments were applied in increasing order until a brisk withdrawal or paw flinching occurred, that was considered as a positive response. The filament applications were repeated three times, with five to ten minutes interval between testing. The withdrawal threshold was determined as the mean of the three values.
(§2) Only the animals which had developed satisfactory Mechanical Allodynia and Thermal Hyperalgesia were used to assess the efficacy of peripheral nerve blockade.
(§3) The rats were anesthetized with 4% halothane inhaled concentration in 100% oxygen by face mask. An unilateral percutaneous sciatic nerve block was then performed on the right ligated side. A 25-gauge needle was introduced between the greater trochanter and the ischial tuberosity, both landmarks previously localized by palpation, according to the technique reported by Thalhammer (Thalhammer JG, et al Neurologic evaluation of the rat during sciatic nerve block with lidocaine. Anesthesiology. 1995 Apr;82(4):1013-25). Different mixtures of saline and alpha-2-adrenergic agonist were then injected in a total volume of 0.3 ml.
A single sciatic block (SB) injection of the following drugs was realized: Saline (n=6), Saline and intramuscular (IM) clonidine 30 μg (n=11), Clonidine 15 μg (n=8), Clonidine 3 μg (n=9). The drug used in the study for peripheral nerve block was: clonidine marketed for clinical use (Catapressan®, Boehringer Ingelheim). The drug was diluted in isotonic saline.
The animals were tested as previously described for both Mechanical Allodynia and Thermal Hyperalgesia at day0 (5 hours after sciatic nerve injection), day 1, day 3, day 7, day 10, day 14 and day 21 post drug injection.
For Mechanical Allodynia, Paw withdrawal threshold (PWT) values were converted to percent of maximum possible effect (% MPE), according to the formula:
% MPE=(post-drug infiltration threshold−baseline post-ligation threshold)/(pre-ligation threshold−baseline post-ligation threshold)×100
Values are expressed as mean±SD. The percent maximum possible effect data were used to calculate the respective ED50 values of clonidine and clonidine combinations using linear regression.

[3] = Procedure: as §3
neuropathic pain = tested on: neuropathic pain
Source text: The patient was then referred to the Pain Clinic to benefit from neuraxial analgesia (either epidural or intrathecal catheter placement). However, long-term spinal catheter is not devoid of side effects, both related to the technique, especially the risk of infection and to the drugs used.

[4] = tested on: thermal hyperalgesia in rats with partial ligation of sciatic nerve; settings: ligated side
Source text: as §1, §2
The rats were anesthetized with 4% halothane inhaled concentration in 100% oxygen by face mask. An unilateral percutaneous sciatic nerve block was then performed on the right ligated side. A 25-gauge needle was introduced between the greater trochanter and the ischial tuberosity, both landmarks previously localized by palpation, according to the technique reported by Thalhammer (Thalhammer JG, et al Neurologic evaluation of the rat during sciatic nerve block with lidocaine. Anesthesiology. 1995 Apr;82(4):1013-25). […]
Values are expressed as mean±SD.

[5] = ipsilateral and contralateral, compared to saline controls (p<0.001)
[6] = one week after single peripheral nerve injection at the injury site, 30 mg as printed

Clc1cccc(Cl)c1NC1=NCCN1 [clonidine, N-(2,6-dichlorophenyl)-4,5-dihydro-1H-imidazol-2-amine]
mean number of pixels in a fixed area occupied by pCREB-IR cells in the dorsal horn [1, 5]: significantly reduced | mean optical density in a fixed area occupied by pCREB-IR cells in the dorsal horn [1, 5]: significantly reduced | increase in pCREB-IR cells in the ipsilateral dorsal horn [1, 6]: dramatically suppressed | number of pCREB-IR cells in the contralateral dorsal horn [1, 6]: markedly reduced | PWT values (Paw Withdrawal threshold) ([2]; intramuscular (IM) clonidine 30 μg, D0 (5 h)): 2.6 ± 1.8 g | PWT values (Paw Withdrawal threshold) ([2]; intramuscular (IM) clonidine 30 μg, D1): 7.9 ± 4.2 g | PWT values (Paw Withdrawal threshold) ([2]; intramuscular (IM) clonidine 30 μg, D3): 4.3 ± 2.8 g | PWT values (Paw Withdrawal threshold) ([2]; intramuscular (IM) clonidine 30 μg, D7): 5.2 ± 2.8 g | PWT values (Paw Withdrawal threshold) ([2]; intramuscular (IM) clonidine 30 μg, D10): 3.6 ± 2.3 g | PWT values (Paw Withdrawal threshold) ([2]; intramuscular (IM) clonidine 30 μg, D14): 2.0 ± 3.3 g | PWT values (Paw Withdrawal threshold) ([2]; intramuscular (IM) clonidine 30 μg, D21): 3.6 ± 1.4 g | peak effect on mechanical allodynia, day post injection ([2]; peripheral sciatic block 3 to 30 μg, four to six weeks after nerve injury): 7 days | Maximal effect in alleviating Mechanical Allodynia ([2]; sciatic block 3 μg, at D1): 34.2±5.1 % MPE | Maximal effect in alleviating Mechanical Allodynia ([2]; sciatic block 15 μg, at D3): 40.5±6.4 % MPE | Maximal effect in alleviating Mechanical Allodynia ([2]; sciatic block 30 μg, at D7): 76.6±9.2 % MPE | PWT values (Paw Withdrawal threshold) ([2]; sciatic block (SB) 3 μg, D0 (5 h)): 4.7 ± 4 g | PWT values (Paw Withdrawal threshold) ([2]; sciatic block (SB) 3 μg, D1): 12.0 ± 4 g | PWT values (Paw Withdrawal threshold) ([2]; sciatic block (SB) 3 μg, D3): 10.3 ± 5 g | PWT values (Paw Withdrawal threshold) ([2]; sciatic block (SB) 3 μg, D7): 8.2 ± 4 g | PWT values (Paw Withdrawal threshold) ([2]; sciatic block (SB) 3 μg, D10): 7.0 ± 3 g | PWT values (Paw Withdrawal threshold) ([2]; sciatic block (SB) 3 μg, D14): 5.0 ± 2 g | PWT values (Paw Withdrawal threshold) ([2]; sciatic block (SB) 3 μg, D21): 4.3 ± 1 g | PWT values (Paw Withdrawal threshold) ([2]; sciatic block (SB) 15 μg, D0 (5 h)): 4.8 ± 2 g | PWT values (Paw Withdrawal threshold) ([2]; sciatic block (SB) 15 μg, D1): 12.6 ± 6 g | PWT values (Paw Withdrawal threshold) ([2]; sciatic block (SB) 15 μg, D3): 12.9 ± 5 g | PWT values (Paw Withdrawal threshold) ([2]; sciatic block (SB) 15 μg, D7): 8.8 ± 3 g | PWT values (Paw Withdrawal threshold) ([2]; sciatic block (SB) 15 μg, D10): 9.7 ± 4 g | PWT values (Paw Withdrawal threshold) ([2]; sciatic block (SB) 15 μg, D14): 6.4 ± 3 g | PWT values (Paw Withdrawal threshold) ([2]; sciatic block (SB) 15 μg, D21): 3.7 ± 1 g | PWT values (Paw Withdrawal threshold) ([2]; sciatic block (SB) 30 μg, D0 (5 h)): 9.3 ± 6 g | PWT values (Paw Withdrawal threshold) ([2]; sciatic block (SB) 30 μg, D1): 14.7 ± 10 g | PWT values (Paw Withdrawal threshold) ([2]; sciatic block (SB) 30 μg, D3): 23.7 ± 11 g | PWT values (Paw Withdrawal threshold) ([2]; sciatic block (SB) 30 μg, D7): 23.0 ± 7 g | PWT values (Paw Withdrawal threshold) ([2]; sciatic block (SB) 30 μg, D10): 11.9 ± 3 g | PWT values (Paw Withdrawal threshold) ([2]; sciatic block (SB) 30 μg, D14): 11.4 ± 4 g | PWT values (Paw Withdrawal threshold) ([2]; sciatic block (SB) 30 μg, D21): 7.8 ± 3 g | effect of single peripheral sciatic block on mechanical allodynia (in words) ([2]; single sciatic block, neuropathic rats): significantly alleviated mechanical allodynia | maximal antiallodynic effect ([2]; systemic injection (IM) 30 μg, at day 0 (5 hours post-sciatic blockade)): 20.7±5.7 % MPE | sedation ([3]; after clonidine injection in rats): mild transitory sedation | motor blockade or motor deficit ([3]; peripheral sciatic nerve block in rats): did not result into motor blockade or subsequent motor deficit | duration of strong alleviation of neuropathic pain after a single femoral block injection (neuropathic pain; clonidine alone): more than ten | onset of the antihyperalgesic effect (neuropathic pain; clonidine alone, femoral block): four to five | efficacy of clonidine alone versus initial mixture (neuropathic pain; femoral block, local anesthetic and steroid withdrawn): as effective as previous combination | tolerance on repetitive blocks (neuropathic pain; repetitive peripheral nerve blocks in the cancerous patient): without apparition of tolerance | effect of peripheral nerve block on thermal hyperalgesia (in words) [4]: alleviated the thermal hyperalgesia in a dose-related manner
